# Measured values as given in US5366726A (priority 1992, dated 1994).
# Values joined by “and” are separate entries in the source; they are usually repeats but may differ in a detail not shown here. Equal values may be shown once.
# What was measured:
# Pneumocystis carinii [1] = experiment: Example 6: prevention of PCP, different dosages and regimens; type: in vivo, human; conditions: of 372, at least one treatment
# Description: A total of 438 participants were selected on the basis of seropositivity for HIV, and were stratified on the basis of (i) prior PCP (n=250), (ii) Kaposi's sarcoma (n=59) or (iii) ARC (n=129).
# Pneumocystis carinii [2] = experiment: Example 8: randomized clinical trial, prevention of PCP; type: in vivo, human
# Pneumocystis carinii [3] = type: in vivo, human
# [4] = parameters: species or system human; conditions: in vivo
# Description: (§1) Chest radiographs and arterial blood gas tensions were obtained as clinically indicated.
# Liver function SGOT or SGPT
# Rash with fever or mucositis
# Cough cough or bronchospasm un-
# [5] = Example 2: pentamidine in BAL supernatant, BAL sediment and serum (HPLC); type: in vivo, human
# Description: The patients were divided into two groups.
# Pneumocystis carinii [6] = experiment: Example 7: prevention of PCP, 300 mg twice per month vs 600 mg once per month; type: in vivo, human
# Description: Five patients who developed PCP within 28 days were not evaluated. One hundred (66%) of the patients were concurrently receiving AZT, and 42 (28%) had experienced one prior episode of PCP.
# [7] = Example 1: pentamidine concentrations in plasma and bronchoalveolar lavage fluid (HPLC); type: in vivo, human; conditions: for Plasma conc. on Day 1: peak during or end of inhalation, single patients
# Description: For six inhalation patients (1, 4, 6, 7, 15, and 16) and five i.v. patients (2, 3, 5, 8, and 22), plasma samples were obtained at the completion of therapy and at 0.17, 0.5, 1, 1.5, 2, 2.5, 3, 4, 5, 6, 8, 10, 12, and 18 hours following initiation of therapy. For patients 9-14 and 17-21, trough and peak plasma samples were collected for the first three days, then weekly during therapy. Trough and peak samples were obtained on days 2, 3, 4, 5, 7, 11, and 13 for patient 2, days 2, 3, 4, 5, 7, and 12 for patient 3, days 2, 3, 4, 5, 13 and 18 for patient 5, and days 2, 3, 4, 5, and 11 for patient 8.
# [8] = cited from earlier work
# Pneumocystis carinii [9] = type: in vivo, human; remark: listed apart in the source
# Description: The initial diagnosis of P. carinii pneumonia was based on finding the organism in induced sputum or bronchoalveolar lavage specimens.
# Treatment was as described in Example 3.
# as §1
# [10] = Example 8: adverse effects in the clinical trial; type: in vivo, human
# Description: Participants were enrolled in one of 13 treatment centers located in the San Francisco Bay area.
# Each treatment was supervised by a respiratory therapist who noted any immediate adverse effects and administered a bronchodilator if needed for severe coughing or bronchospasm.
# Participants were questioned at baseline and at each visit about concomitant medications, intercurrent illnesses, and symptoms. Information from participants, their physicians, hospital records, microbiology departments, and county health departments were used to determine status.
# [11] = Example 3: serum pentamidine concentrations; type: in vivo; conditions: human, inhaled or intranasal, 300 mg, serum pentamidine concentration at end of therapy, 2 patients
# [12] = inhaled, animals; cited from earlier work
# Pneumocystis carinii [13] = conditions: standard therapy, intravenous pentamidine or TMP-SMX
# Description: Adult patients having or suspected of having AIDS, and who were hospitalized for a fiberoptic bronchoscopy to evaluate diffuse infiltrates on chest radiographs, were studied. The patients were divided into two groups.
# [14] = all strata, eligible, PCP within 60 days, 30 mg
# [15] = all strata, eligible, confirmed PCP within 60 days, 30 mg
# [16] = prior PCP strata, eligible, PCP within 60 days, 30 mg
# [17] = prior PCP strata, eligible, PCP within 60 days, 150 mg
# [18] = prior PCP strata, eligible, PCP within 60 days, 300 mg
# [19] = prior PCP strata, eligible, confirmed PCP within 60 days, 30 mg
# [20] = prior PCP strata, eligible, confirmed PCP within 60 days, 150 mg
# [21] = prior PCP strata, eligible, confirmed PCP within 60 days, 300 mg
smiles,measurement,setting,value
"N=C(N)c1ccc(OCCCCCOc2ccc(C(=N)N)cc2)cc1 [pentamidine, p,p'-(pentamethylenedioxy)dibenzamidine]",participants who experienced relapse,Pneumocystis carinii [1],17
same,effectiveness vs 300 mg,"Pneumocystis carinii [2]; 150 mg arm, compared with 30 mg arm, not statistically significant vs 300 mg",consistently less effective than 300 mg
same,"time to PCP occurrence, Kaplan-Meier",Pneumocystis carinii [2]; 150 mg vs 30 mg,superior to the 30 mg arm but less so than the 300 mg arm
same,PCP episodes vs other arms,Pneumocystis carinii [2]; 300 mg arm,fewest PCP episodes
same,"time to PCP occurrence, Kaplan-Meier",Pneumocystis carinii [2]; 300 mg every 4 weeks vs 30 mg every 2 weeks,consistently superior
same,"hazard of PCP, Cox model",Pneumocystis carinii [2]; 300 mg group,significantly lower hazard of PCP
same,PCP episodes documented during study,Pneumocystis carinii [2]; all arms,One hundred-one
same,PCP events not histologically confirmed,Pneumocystis carinii [2]; all arms,Twenty-five
same,completed the study without reaching a study endpoint,Pneumocystis carinii [2]; all arms,26%
same,deaths due to PCP,Pneumocystis carinii [2]; all arms,Nineteen
same,"p, log rank 30 mg vs. 300 mg","Pneumocystis carinii [2]; all strata, eligible, PCP within 60 days",.004
same,No PCP,Pneumocystis carinii [2]; [14],89
same,PCP,Pneumocystis carinii [2]; [14],28
same,PCP,"Pneumocystis carinii [2]; all strata, eligible, PCP within 60 days, 150 mg",18
same,PCP,"Pneumocystis carinii [2]; all strata, eligible, PCP within 60 days, 300 mg",16
same,"p, log rank 30 mg vs. 300 mg","Pneumocystis carinii [2]; all strata, eligible, confirmed PCP within 60 days",.0008
same,No PCP,Pneumocystis carinii [2]; [15],95
same,PCP,Pneumocystis carinii [2]; [15],22
same,PCP,"Pneumocystis carinii [2]; all strata, eligible, confirmed PCP within 60 days, 150 mg",16
same,PCP,"Pneumocystis carinii [2]; all strata, eligible, confirmed PCP within 60 days, 300 mg",8
same,"p, log rank 30 mg vs. 300 mg","Pneumocystis carinii [2]; all strata, intention to treat",.02
same,PCP,"Pneumocystis carinii [2]; all strata, intention to treat, all PCP, 30 mg",41
same,PCP,"Pneumocystis carinii [2]; all strata, intention to treat, all PCP, 150 mg",32
same,PCP,"Pneumocystis carinii [2]; all strata, intention to treat, all PCP, 300 mg",28
same,No PCP,"Pneumocystis carinii [2]; all strata, intention to treat, 30 mg",94
same,"Cox relative hazard of 30 mg, on study drugs events",Pneumocystis carinii [2]; for 150 mg,1.7
same,"Cox relative hazard of 30 mg, on study drugs events",Pneumocystis carinii [2]; for 300 mg,3.9
same,all cause mortality between three treatment arms,"Pneumocystis carinii [2]; human, in vivo",did not significantly differ
same,participants who developed PCP,"Pneumocystis carinii [2]; initial CD4 counts greater than 200, no prior PCP",5.1%
same,participants who developed PCP,"Pneumocystis carinii [2]; initial CD4 counts less than 200, no prior PCP",13%
same,"p, log rank 30 mg vs. 300 mg","Pneumocystis carinii [2]; prior PCP strata, eligible, PCP within 60 days",.006
same,No PCP,Pneumocystis carinii [2]; [16],42
same,PCP,Pneumocystis carinii [2]; [16],25
same,No PCP,Pneumocystis carinii [2]; [17],51
same,PCP,Pneumocystis carinii [2]; [17],16
same,No PCP,Pneumocystis carinii [2]; [18],60
same,PCP,Pneumocystis carinii [2]; [18],14
same,"p, log rank 30 mg vs. 300 mg","Pneumocystis carinii [2]; prior PCP strata, eligible, confirmed PCP within 60 days",.002
same,No PCP,Pneumocystis carinii [2]; [19],47
same,PCP,Pneumocystis carinii [2]; [19],20
same,No PCP,Pneumocystis carinii [2]; [20],53
same,PCP,Pneumocystis carinii [2]; [20],14
same,No PCP,Pneumocystis carinii [2]; [21],66
same,PCP,Pneumocystis carinii [2]; [21],8
same,"p, log rank 30 mg vs. 300 mg","Pneumocystis carinii [2]; prior PCP strata, intention to treat",.02
same,PCP,"Pneumocystis carinii [2]; prior PCP strata, intention to treat, all PCP, 30 mg",33
same,PCP,"Pneumocystis carinii [2]; prior PCP strata, intention to treat, all PCP, 150 mg",24
same,PCP,"Pneumocystis carinii [2]; prior PCP strata, intention to treat, all PCP, 300 mg",21
same,No PCP,"Pneumocystis carinii [2]; prior PCP strata, intention to treat, 30 mg",46
same,No PCP,"Pneumocystis carinii [2]; prior PCP strata, intention to treat, 150 mg",54
same,No PCP,"Pneumocystis carinii [2]; prior PCP strata, intention to treat, 300 mg",59
same,PCP episodes,"Pneumocystis carinii [2]; prior PCP stratum, all arms",Seventy-eight
same,median time to PCP relapse,Pneumocystis carinii [2]; prophylaxis started within 3 months of prior episode,240 days
same,hazard of PCP,Pneumocystis carinii [2]; therapy started within 3 months vs later,less than half the hazard of PCP
same,"mild cough controlled by metaproterenol, patients",aerosol,9 patients
same,"severe coughing, patients","aerosol, all smokers",3 patients
same,"adverse systemic reactions (renal, liver, hematologic, hypoglycemia, hypotension)",in vivo,No adverse systemic reactions
same,air-way obstruction,in vivo,Neither clinical nor spirometric evidence of air-way obstruction occurred
same,clinical bronchospasm,in vivo,not seen
same,"coughing with therapy, patients",in vivo,Twelve
same,Toxicity Req Change of Therapy,n = 15,0(0) n (%)
same,"dyspnea, respiratory rate and fever",Pneumocystis carinii [3]; all 13 patients treated successfully,marked reduction
same,patients who died of progressive respiratory failure,"Pneumocystis carinii [3]; concomitant tuberculosis, changed to TMP-SMX day 7",One
same,"clinical improvement during second week, patients",Pneumocystis carinii [3]; in vivo,3 patients
same,"clinical improvement in first week, patients",Pneumocystis carinii [3]; in vivo,Ten
same,Successful Treatment w/ Change,Pneumocystis carinii [3]; n = 15,14(93) n (%)
same,Successful Treatment w/o Change,Pneumocystis carinii [3]; n = 15,13(86) n (%)
same,"worsened infiltrates at one week with subsequent improvement, patients",Pneumocystis carinii [3]; of 13,Five
same,"worsened or no improvement for first two weeks, then improvement, patients",Pneumocystis carinii [3]; of 13,4 patients
same,"radiographic improvement beginning by second week, patients",Pneumocystis carinii [3]; of 13 patients treated successfully,4
same,average hospital stay,Pneumocystis carinii [3]; patients treated successfully,8 days
same,severe adverse reactions,[4],No patient developed any severe adverse reactions
same,"BAL sediment concentration, aerosol vs intravenous group",[5]; 18-24 h,10-100 fold
same,"mean BAL supernatant (aerosol) vs sediment (intravenous) concentration, factor",[5]; 18-24 h,more than 2
same,systemic absorption,[5]; after aerosol administration,Little or no systemic absorption
same,attack rate at 6.38 months,"Pneumocystis carinii [6]; 300 mg twice or 600 mg once per month, p<0.01 vs previous study",3%
same,deaths associated with PCP,Pneumocystis carinii [6]; 3 deaths,2%
same,deaths due to other causes,Pneumocystis carinii [6]; 9 deaths,6%
same,evaluable patients who died,Pneumocystis carinii [6]; 12 of 146,8%
same,Cmax,"[7]; human, plasma, intravenous, 3 mg/Kg, read-out: mean peak plasma concentration during first infusion",260 ± 56 ng/mL
same,plasma samples with no detectable drug,[7]; inhaled,approximately two-thirds
same,"lavage fluid concentration, inhalation vs iv-treated patients",[7]; inhaled vs intravenous,approximately 10 fold
same,Plasma conc. on Day 1,[7]; inhaled,0.0 ng/mL
same,Plasma conc. on Day 1,"[7]; inhaled, 1440 min",3.1 ng/mL and 14.7 ng/mL and 16.9 ng/mL and 7.3 ng/mL and 32.8 ng/mL and 12.3 ng/mL and 2.5 ng/mL and 7.4 ng/mL and 7.8 ng/mL and 35.0 ng/mL and 30.9 ng/mL and 9.2 ng/mL
same,"maximum plasma concentration during remainder of therapy, single patients","[7]; intravenous, patient 3 day 5 (lowest), patient 19 day 14 (highest)",164 ng/mL and 1360 ng/mL
same,less common adverse effects,"[8]; human, in vivo",cardiac arrhythmias and pancreatitis
same,local reactions at site of intramuscular injection,[8]; intramuscular,"Pain, swelling and sterile abscesses"
same,"generalized or local reactions, intravenous",[8]; intravenous,thrombophlebitis and generalized or localized urticarial eruptions
same,hypoglycemia,[8]; parenteral,Hypoglycemia has also been reported
same,impaired renal function,[8]; parenteral,about 25%
same,other common adverse reactions,[8]; parenteral,"elevation of liver enzymes, hematologic disturbances with neutropenia and thrombocytopenia, fever, hypocalcemia, and hallucinations"
same,hypotension,[8]; single intramuscular dose or rapid intravenous infusion,Severe hypotension
same,"hypoxia, fever, dyspnea",Pneumocystis carinii [9]; 10 patients,"none of the patients were hypoxic or febrile, all had improvement in dyspnea"
same,completion of therapy,"Pneumocystis carinii [9]; 10 patients, 4 to 17 days",All patients successfully completed therapy
same,chest radiographs,Pneumocystis carinii [9]; current or subsequent,roentrographic improvement of infiltrates
same,"Pneumothorax, Known etiology",[10]; 30 mg,5
same,"Pneumothorax, Spontaneous",[10]; 30 mg,2
same,Significant Cough,[10]; 30 mg,31%
same,Treatments stopped due to cough,[10]; 30 mg,0%
same,Used Bronchodilators,[10]; 30 mg,7.5%
same,"Withdrew, Adverse Effects",[10]; 30 mg,2
same,"Pneumothorax, Known etiology",[10]; 150 mg,5
same,"Pneumothorax, Spontaneous",[10]; 150 mg,3
same,Significant Cough,[10]; 150 mg,40%
same,Treatments stopped due to cough,[10]; 150 mg,0.2%
same,Used Bronchodilators,[10]; 150 mg,14%
same,"Withdrew, Adverse Effects",[10]; 150 mg,11
same,"Pneumothorax, Known etiology",[10]; 300 mg,3
same,"Pneumothorax, Spontaneous",[10]; 300 mg,3
same,Significant Cough,[10]; 300 mg,38%
same,Treatments stopped due to cough,[10]; 300 mg,0.7%
same,Used Bronchodilators,[10]; 300 mg,20%
same,"Withdrew, Adverse Effects",[10]; 300 mg,10
same,significant coughing during a treatment,[10]; all participants,36%
same,wheezing during a treatment,[10]; all participants,11%
same,participants who used bronchodilators during treatment,"[10]; human, in vivo",Fourteen
same,"rash, participants","[10]; human, in vivo",One
same,spontaneous pneumothorax,"[10]; human, in vivo",Eight
same,"stopped due to interstitial pneumonitis, participants","[10]; human, in vivo",One
same,treatments ended by cough,"[10]; human, in vivo",0.3%
same,treatments interrupted by cough,"[10]; human, in vivo",0.5%
same,"withdrew after pneumothoraces, participants","[10]; human, in vivo",four
same,concentration at 504 h,[11],22 ng/mL
same,microscopic airway changes,[12],no microscopic airway changes
same,response of all patients infected with P. carinii,Pneumocystis carinii [13],responded to standard therapy
